Measured values: patent US12624050B2, “Three fused ring derivative-containing salt or crystal form and pharmaceutical composition thereof” (Shanghai Hansoh Biomedical Co., Ltd., priority 2019, dated 2026)

Assays:
[1] = Toxicokinetics in the 7-day repeated intragastric administration study in SD rats; type: in vivo, Sprague-Dawley (SD) rat
Description: (§1) • Test compound 1: GDC-0077 • Test compound 2: the compounds of Example 22 and Example 62 3.2.2 Vehicle • Name: 20% aqueousSBE-β-CD (Captisol) solution 3.2.3 Animal Information • Species & strains: Sprague-Dawley (SD) rat • Animal grade: SPF grade • Number and sex of animals: 160 rats, half male and half female. 3.2.4 Instruments • The ADVIA®2120 series Hematology System with Autoslide was used for blood cell counting; • The SYSMEX CA-500 Coagulation Analyzer was used for the detection of coagulation function indicators; • The TBA-120FR Automated Biochemical Analyzer was used for the detection of blood biochemical indicators; • The Easylyte Electrolyte Analyzer was used for the detection of electrolytes; • The liquid mass spectrometry detector model API4000; • The electron spray ionization (ESI) positive ion mode and column type Agilent ZORBAX XDB-C18 (3.5 μm, 2.1×50 mm) were used for bioanalytical detection of plasma samples. 3.3 Experimental Method • 1) In the experiment, 160 rats (80 rats/sex) were divided into 20 groups according to their sex and body weight, wherein 100 rats were used for toxicology study (groups 1 to 10, 5 rats/sex/group) and 60 rats were used for toxicokinetic study (groups 11 to 20, 3 rats/sex/group); • 2) As the vehicle control group, the animals in groups 1 and 11 were intragastrically administered 20% aqueous SBE-β-CD (Captisol) solution; • 3) The animals in groups 2 and 12, groups 3 and 13, and groups 4 and 14 were intragastrically administered 10, 30 and 60 mg/kg of GDC-0077, respectively; • 4) The animals in groups 5 and 15, groups 6 and 16, and groups 7 and 17 were intragastrically administered 10, 30 and 60 mg/kg of the compound of Example 22, respectively; • 5) The animals in groups 8 and 18, groups 9 and 19, groups 10 and 20 were intragastrically administered 10, 30 and 60 mg/kg of the compound of Example 62, respectively; • 5) The animals were administered once a day for 7 consecutive days (the animals in groups 7, 17, 10 and 20 were administered for 6 consecutive days). • 6) The administration volume was 10 mL/kg. • 7) During the experiment, items such as clinical observation, body weight, food intake, clinicopathological indicators (blood cell count, coagulation function, blood biochemistry), toxicokinetics and the like were studied. • 8) All animals were euthanized on Day 8 (the animals in groups 7, 10, 17 and 20 were euthanized after administration on Day 6). • 9) During the experiment, gross anatomical observation was performed on the animals in groups 1 to 10, animals in groups 17 and 20, and dead animals (including animals in toxicological study). Histopathological examination was performed on abnormal tissues, gastrointestinal tissues (such as colon, cecum) and immune tissues (such as thymus). […]

[2] = system: SD rats; assay: Toxicity test of a 7-day repeatedly intragastric administration in SD rats; type: in vivo; conditions: 7 days; for tolerance compared with GDC-0077: SD rats, 10, 30 and 60 mg/kg once/day
Description: as §1

[3] = target: T1, PI3Kα (Homo sapiens, UniProt P42336); assay: ADP-Glo Lipid Kinase Assay, PI3Kα kinase activity; type: biochemical
T1 construct: purchased Promega #V1721
Protocol: In this experiment, ADP-Glo Lipid Kinase Assay (Promega #V9102) from Promega was used. The lipid kinases PI3Kα/β/γ/δ catalyzed the ATP-to-ADP reaction in the presence of the substrate PIP2:3PS and ATP. The lipid kinase activity was characterized by measuring the ADP content in the reaction, and the half inhibition concentrations IC50 of the compounds on PI3Kα/β/γ/δ kinase activity were obtained.
Kinase reactions were carried out in white 384-well plates (Perkin Elmer #6007299). 2 μL of the compound of various concentrations diluted with ddH2O containing 1% DMSO was added to each well, and 2 μL of ddH2O containing 1% DMSO was added to positive control wells. […] After the reaction was carried out for 20 minutes at room temperature in the dark, the chemiluminescence was measured by BioTek Synergy H1 microplate reader.
The percentage inhibition data of the compound-treated well was calculated from positive control wells (DMSO control wells) and negative control wells (no kinase added) on the plate {% inhibition=100−[(test compound value−negative control value)]/(positive control value-negative control value)×100}. IC50 values were calculated using GraphPad prism and using a four-parameter nonlinear logistic formula to fit the data of different concentrations and corresponding percent inhibition.

[4] = Pharmacokinetic (PK) assay in mice, single intragastric administration; type: in vivo; conditions: mouse, po, Balb/c male mice, 5 mg/kg, plasma; for AUC(0-t): read-out: Area under the curve AUC0-t; for AUC(0-inf): read-out: Area under the curve AUC0-∞; for half-life: read-out: Half life t1/2 (converted); for MRT: read-out: Mean residence time MRT; for Tmax: read-out: Peak time tmax; for Cmax: read-out: Plasma concentration Cmax
Protocol: The pharmacokinetic assay of the preferred compounds of the examples of the present invention in mice was carried out in Balb/c male mice (Shanghai Jiesijie Laboratory Animal Co., Ltd.).
5.1 Administration route: single intragastric administration.
5.2 Administration dose: 5 mg/10 ml/kg (body weight).
5.3 Formulation: the compound was dissolved in 0.5% CMC-Na by ultrasound to obtain a clear solution or a homogeneous suspension.
5.4 Sampling points: 0.5, 1, 2, 4, 6, 8 and 24 hours after administration.
• 1) 0.1 mL of orbital blood was collected and placed in a K2-EDTA test tube, centrifuged at 1000 to 3000×g at room temperature for 5 to 20 min to separate the plasma, which was then stored at −80° C. • 2) 160 uL of acetonitrile was added to 40 uL of plasma sample for precipitation. After mixing, the sample was centrifuged at 500 to 2000×g for 5 to 20 minutes. • 3) 100 uL of the supernatant after processing was taken and analyzed by LC/MS/MS assay to determine the concentrations of the example compound. 5.6 LC-MS/MS Assay: • Liquid chromatography condition: Shimadzu LC-20AD pump • Mass spectrometry condition: AB Sciex API 4000 mass spectrometer • Chromatographic column: phenomenex Gemiu 5 μm C18 50×4.6 mm • Mobile phase: solution A was 0.1% aqueous formic acid solution, and solution B was acetonitrile • Flow rate: 0.8 mL/min • Elution time: 0 to 4 minutes, gradient elution 5.7 Pharmacokinetics: […]

[5] = doses of 10, 30 and 60 mg/kg once/day

T1 sequence (P42336 whole entry): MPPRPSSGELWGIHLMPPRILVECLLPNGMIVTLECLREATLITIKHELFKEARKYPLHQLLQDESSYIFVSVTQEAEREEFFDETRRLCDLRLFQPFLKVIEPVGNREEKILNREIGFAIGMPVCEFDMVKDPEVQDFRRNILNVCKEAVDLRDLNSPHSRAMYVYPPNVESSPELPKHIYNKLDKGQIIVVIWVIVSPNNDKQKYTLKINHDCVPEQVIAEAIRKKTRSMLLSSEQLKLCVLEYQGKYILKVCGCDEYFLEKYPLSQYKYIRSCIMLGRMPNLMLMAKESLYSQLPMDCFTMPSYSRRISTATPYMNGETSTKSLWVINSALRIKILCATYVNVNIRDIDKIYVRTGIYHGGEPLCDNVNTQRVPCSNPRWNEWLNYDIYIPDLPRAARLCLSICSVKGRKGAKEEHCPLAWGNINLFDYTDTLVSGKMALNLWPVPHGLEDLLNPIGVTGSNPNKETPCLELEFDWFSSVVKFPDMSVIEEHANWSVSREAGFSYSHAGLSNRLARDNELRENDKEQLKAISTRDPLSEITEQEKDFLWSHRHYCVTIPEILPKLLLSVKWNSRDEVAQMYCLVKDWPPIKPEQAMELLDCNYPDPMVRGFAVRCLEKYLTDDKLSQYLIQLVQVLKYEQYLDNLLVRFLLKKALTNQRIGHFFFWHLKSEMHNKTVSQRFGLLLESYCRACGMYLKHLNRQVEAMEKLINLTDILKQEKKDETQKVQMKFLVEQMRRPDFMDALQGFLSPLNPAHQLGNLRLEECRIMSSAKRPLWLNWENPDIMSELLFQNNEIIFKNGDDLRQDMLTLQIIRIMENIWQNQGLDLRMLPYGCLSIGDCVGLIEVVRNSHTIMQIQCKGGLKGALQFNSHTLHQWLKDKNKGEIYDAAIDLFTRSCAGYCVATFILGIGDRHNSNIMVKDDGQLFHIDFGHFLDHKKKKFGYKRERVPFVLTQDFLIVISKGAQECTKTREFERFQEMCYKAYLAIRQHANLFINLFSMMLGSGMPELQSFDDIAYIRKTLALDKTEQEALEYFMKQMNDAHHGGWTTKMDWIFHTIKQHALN
T1 sequence (P27986 whole entry partner): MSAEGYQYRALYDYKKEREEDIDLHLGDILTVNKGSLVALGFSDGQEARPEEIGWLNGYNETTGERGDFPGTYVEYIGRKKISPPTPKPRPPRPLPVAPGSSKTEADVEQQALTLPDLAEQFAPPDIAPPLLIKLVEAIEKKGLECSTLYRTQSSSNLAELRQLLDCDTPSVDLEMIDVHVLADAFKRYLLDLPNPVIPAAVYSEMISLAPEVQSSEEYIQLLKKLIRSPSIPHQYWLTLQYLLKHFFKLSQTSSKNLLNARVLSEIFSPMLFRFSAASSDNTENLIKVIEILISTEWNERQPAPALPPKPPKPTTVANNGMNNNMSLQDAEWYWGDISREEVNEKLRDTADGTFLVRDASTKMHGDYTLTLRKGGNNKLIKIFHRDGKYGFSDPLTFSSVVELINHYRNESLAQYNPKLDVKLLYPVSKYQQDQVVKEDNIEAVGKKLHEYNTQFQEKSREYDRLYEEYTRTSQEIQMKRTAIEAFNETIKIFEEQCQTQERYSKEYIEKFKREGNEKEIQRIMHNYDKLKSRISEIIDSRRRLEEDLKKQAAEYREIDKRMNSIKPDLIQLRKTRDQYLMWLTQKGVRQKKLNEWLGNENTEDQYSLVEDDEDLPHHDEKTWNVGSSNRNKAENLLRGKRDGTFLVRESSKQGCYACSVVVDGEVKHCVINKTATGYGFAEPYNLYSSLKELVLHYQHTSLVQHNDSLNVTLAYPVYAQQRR

In the case of C[C@H](Nc1ccc2c(c1)OCCn1cc(N3C(=O)SC[C@H]3C(F)F)nc1-2)C(N)=O [Example 22, (S)-2-((2-((R)-4-(difluoromethyl)-2-oxothiazolidin-3-yl)-5,6-dihydrobenzo[f]imidazo[1,2-d][1,4]oxazepin-9-yl)amino)propionamide], the “systemic exposure compared with GDC-0077 at the same dose” value [1] is reported as “significantly higher than that of GDC-0077”, the “Cmax and AUC(0-24 h) compared with GDC-0077” value ([1]; dose of 30 mg/kg) is reported as “significantly higher than those of GDC-0077” and the “Cmax and AUC(0-24 h) compared with GDC-0077” value [1, 5] is reported as “significantly higher than those of GDC-0077”. The “tolerance compared with GDC-0077” value [2] was “better than that of GDC-0077” and the lethal dose ([2]; SD rats, intragastric once/day) was 60 mg/kg.

C[C@H](Nc1ccc2c(c1)N(C)CCn1cc(N3C(=O)OC[C@H]3C(F)F)nc1-2)C(N)=O [Example 56, (S)-2-((2-((S)-4-(difluoromethyl)-2-oxooxazolidin-3-yl)-7-methyl-6,7-dihydro-5H-benzo[f]imidazo[1,2-d][1,4]diazoheptin-9-yl)amino)propionamide] gave an IC50 [3] of 0.5 nM, an AUC(0-t) [4] of 1350 ng·h/mL and an AUC(0-inf) [4] of 1360 ng·h/mL. For the same molecule, the half-life [4] was 1.6 h, the MRT [4] was 2.2 h and the Tmax [4] was 0.5 h. For the same molecule, the Cmax [4] was 985 ng/mL.

For C[C@H](Nc1ccc2c(c1)SCCn1cc(N3C(=O)OC[C@H]3C(F)F)nc1-2)C(N)=O [Example 62, (S)-2-((2-((S)-4-(difluoromethyl)-2-oxooxazolidin-3-yl)-5,6-dihydrobenzo[f]imidazo[1,2-d][1,4]thiazepin-9-yl)amino)propionamide], the IC50 [3] was 0.1 nM, the “Cmax and AUC(0-24 h) compared with GDC-0077” value [1, 5] was “significantly higher than those of GDC-0077” and the AUC(0-t) [4] was 3440 ng·h/mL. The AUC(0-inf) [4] was 3470 ng·h/mL, the half-life [4] was 1.5 h and the MRT [4] was 2.8 h. The Tmax [4] was 0.5 h, the Cmax [4] was 1250 ng/mL and the “tolerance compared with GDC-0077” value [2] was “better than that of GDC-0077”.
